Laboratory results as given in patent publication US20070154540A1 (KMSI CO., LTD., priority 2003, published 2007).
Read-outs that look alike come from different tables or passages of the source.

Assays:
[1] = system: chondrocytes isolated from the cartilage of New Zealand white rabbits; test: cells; format: cell-based; settings: Oryctolagus cuniculus, Chondrocyte, read-out: IC50 values for apigenin on chondrocytes
Description: During culturing, on Days 1, 2, 4 and 6, IC50 values were measured by a MTT assay based on cell viability.

[2] = system: osteoarthritis-induced New Zealand white rabbits; test: Visual observation of joint cartilage in ACLT osteoarthritis-induced rabbits; format: in vivo
Excerpt: To prepare an osteoarthritis animal model, New Zealand white rabbits underwent anterior cruciate ligament transection (ACLT) in joints of their two hind legs. […] The following Examples 3 to 10 were all performed using joints of the osteoarthritis-induced New Zealand white rabbits prepared as in this Example 2. […] In contrast, in the PBS control group, the surface of joint cartilage was very rough due to the damage of the joint cartilage.

[3] = system: osteoarthritis-induced New Zealand white rabbits; test: Prostaglandin E2 levels in joint synovial fluids (EIA); format: in vivo
Excerpt: To prepare an osteoarthritis animal model, New Zealand white rabbits underwent anterior cruciate ligament transection (ACLT) in joints of their two hind legs. After three days, the rabbits were forced to sustain movement for four weeks in a space of 5×5 m^3 to induce substantial osteoarthritis. […] The following Examples 3 to 10 were all performed using joints of the osteoarthritis-induced New Zealand white rabbits prepared as in this Example 2.
Using the joint synovial fluids prepared in Example 3, prostaglandin E2 (PGE2) levels in synovial fluids were measured using an enzyme immunoassay (EIA) kit (DE0100, R&D Systems). 100 μl of a 1:10 dilution of a synovial fluid sample was mixed with 50 μl of a conjugate and 50 μl of an antibody in a plate provided in the kit, and was incubated with agitation at room temperature for two hours. Then, the plate was washed with a washing buffer, and 200 μl of a pNPP solution was added thereto, followed by incubation at room temperature for one hour. Thereafter, absorbance was measured at 405 nm.

[4] = system: osteoarthritis-induced New Zealand white rabbits; test: H&E staining and safranin-O staining of joint cartilage; format: in vivo; settings: apigenin treatment group compared to control group
Description: Distal femurs were collected from experimental animals and fixed with 4% formalin (F8775, Sigma) for over 24 hrs. An area of the distal femur to be analyzed was sectioned into a 5-mm thickness, decalcified with 5% nitric acid (25, 811-3, Sigma) for over 24 hrs and embedded into paraffin to provide a paraffin block. The paraffin block was sectioned, and the resulting 4-μm sections were subjected to H&E staining and staining with a cartilage-specific dye, safranin-O (S2255, Sigma), and observed under an optical microscope to evaluate the condition of cartilage.

RAW 264.7 cells = test: LPS-induced NO production of macrophages (Griess); format: cell-based, mice; settings: 16 hrs, LPS alone 40, non-treated 2
Description: (§1) A macrophage cell line derived from mice, RAW 264.7 (KCLB 40071), was purchased from the Korean Cell Line Bank. RAW 264.7 cells were seeded in a density of 3×10^6 cells onto 60-mm culture dishes containing DMEM (Dulbecco's Modified Eagle Medium, 12800-017, Gibco) supplemented with 10% FBS (fetal bovine serum, 26140-079, Gibco), 100 U/ml of penicillin and 100 μg/ml streptomycin (15140-122, Gibco), and cultured at 37° C. under 5% CO2 and humidity for 24 hrs. To induce NO production, RAW 264.7 cells were treated with 500 ng/ml of an E. coli cell wall component, lipopolysaccharide (LPS, […], Sigma). […] Herein, LPS was dissolved in distilled water, and apigenin was dissolved in DMSO. Then, the culture medium and a Griess reagent were mixed at a ratio of 1:1 (100 μl: 100 μl) and allowed to stand at room temperature for 10 min. Thereafter, absorbance was measured at 540 nm using a spectrophotometer (Power Wave X340, Bio-Tek).

iNOS = test: Western blotting of iNOS expression in LPS-treated RAW 264.7; format: cell-based, mice; settings: LPS treatment = 100%, upon apigenin treatment
Description: as §1, with “Bio-Tek). RAW 264.7 cells were treated under the same conditions as in Example 12. […] Herein, for IκBα expression, the cells were treated with LSP for only two hours. […] After protein concentrations in cell lysates were measured, […] protein samples were separated on an 8-16% SDS (sodium dodecyl sulfate) polyacrylamide gel (EC60452, NOVEX). […]” for “Bio-Tek).”

O=c1cc(-c2ccc(O)cc2)oc2cc(O)cc(O)c12 [apigenin, 4′,5,7-trihydroxyflavone]
IC50 ([1]; 24 h): ~200 µM
IC50 ([1]; 48 h): ~100 µM
IC50 ([1]; 96 h): ~40 µM
IC50 ([1]; 144 h): ~30 µM
surface of joint cartilage (visual) ([2]; apigenin-treated right joint, 50 μg once per week for four weeks): visually smooth
cartilage in the left joint of the test group (visual) ([2]; non-treated left joint of apigenin group): improved to some extent
PGE2 levels in joint synovial fluids ([3]; apigenin-treated right leg (+), four weeks after drug injection): about 196.71 pg/ml
PGE2 levels in joint synovial fluids ([3]; apigenin-treated right leg (+), four weeks after drug injection, listed as Apigenin): 196.71 ± 0.52 pg/mL
PGE2 levels in joint synovial fluids ([3]; apigenin-treated right leg (+), two weeks after drug injection): 183.26 ± 0.2 pg/mL
PGE2 levels in joint synovial fluids ([3]; non-treated left leg (−) of apigenin treatment group, four weeks after drug injection): about 753.2 pg/ml
PGE2 levels in joint synovial fluids ([3]; non-treated left leg (−) of apigenin treatment group, four weeks after drug injection, listed as Apigenin): 509.2 ± 9.2 pg/mL
PGE2 levels in joint synovial fluids ([3]; non-treated left leg (−) of apigenin treatment group, two weeks after drug injection): 543.3 ± 1.13 pg/mL
condition of cartilage by H&E and safranin-O staining [4]: damaged areas of cartilage were found to be restored
Nitrite (RAW 264.7 cells; LPS 500 ng/ml + apigenin 10 μM): 32.2 µM
Nitrite (RAW 264.7 cells; LPS 500 ng/ml + apigenin 20 μM): 22.2 µM
Nitrite (RAW 264.7 cells; LPS 500 ng/ml + apigenin 40 μM): 10.1 µM
Nitrite (RAW 264.7 cells; LPS 500 ng/ml + apigenin 80 μM): 9 µM
iNOS expression level (iNOS): 0%
